Data: article PMC5078989, “Targeted inhibition of the COP9 signalosome for treatment of cancer” (Nature Communications, 2016)

Columns and labels:
Format in all cases: biochemical
Human AMSHLP = target: T1, Human AMSHLP (Homo sapiens, UniProt Q96FJ0); test: Selectivity assay AMSHLP (ubiquitin-rhodamine110-glycine substrate); settings: JAMM domain protease
T1 construct: made in house; host or cells: E. coli
T1 sequence (Q96FJ0 1-436): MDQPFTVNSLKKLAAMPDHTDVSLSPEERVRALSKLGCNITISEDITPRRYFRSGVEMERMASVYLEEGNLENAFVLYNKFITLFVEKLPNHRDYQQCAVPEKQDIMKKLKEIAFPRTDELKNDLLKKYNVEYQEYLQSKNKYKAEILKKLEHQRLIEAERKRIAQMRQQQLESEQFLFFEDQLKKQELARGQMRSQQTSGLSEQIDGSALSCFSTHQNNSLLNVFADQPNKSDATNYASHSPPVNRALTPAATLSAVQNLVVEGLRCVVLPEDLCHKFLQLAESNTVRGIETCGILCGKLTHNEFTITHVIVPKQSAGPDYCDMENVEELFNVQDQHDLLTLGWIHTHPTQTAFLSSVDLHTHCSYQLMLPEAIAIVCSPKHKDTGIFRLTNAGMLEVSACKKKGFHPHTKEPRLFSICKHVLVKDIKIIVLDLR
Protocol: (§1) All biochemical assays were performed at room temperature in 384-well plates in a total volume of 25.25 μl per well. Test compounds were dissolved in 90% (v/v) DMSO/water. For the assays, 250 nl of compound solution was added per well, followed by addition of 12.5 μl protease solution. After 70 min of pre-incubation at room temperature, the reactions were started by addition of 12.5 μl substrate solution and followed either by measuring fluorescence intensity (rhodamine 110-based substrates) or by fluorescence lifetime (PT14-based substrates). The effect of compound on enzymatic activity was obtained from the linear part of the progress curves and determined after 1 h (t=60 min). The final compound concentrations ranged from 100 μM to 1 nM.
Human AMSHLP. Enzyme was expressed in and purified from E. coli; substrate: ubiquitin-rhodamine110-glycine was purchased from emp Biotech GmbH (Berlin, Germany; product number AS 09/12-A4); enzyme concentration: 4 nM; substrate concentration: 200 nM; assay buffer: 100 mM Tris/HCl at pH 7.5, 10 mM CaCl2, 100 mM NaCl, 10 μM ZnCl2, 0.005% (v/v) BRIJ 35 and 5 mM dithioerythritol (DTE).

human MMP8 = target: T2, human MMP8 (Homo sapiens, UniProt P22894); test: Selectivity assay MMP8
T2 construct: human MMP8 (Uniprot P22894), amino acids 100–262; made in house; host or cells: E. coli
T2 sequence (P22894 100-262): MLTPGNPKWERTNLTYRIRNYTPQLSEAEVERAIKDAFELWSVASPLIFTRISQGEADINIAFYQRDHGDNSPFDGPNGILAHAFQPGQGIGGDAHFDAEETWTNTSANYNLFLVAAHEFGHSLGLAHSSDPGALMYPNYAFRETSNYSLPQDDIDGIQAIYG
Protocol: as §1
(§2) Matrix metalloproteinases. Human MMP1 (Uniprot P03956), amino acids 1–469, expressed in and purified from stable transfected C127 cells; human MMP2 (Uniprot P08253), amino acids 1–660, expressed in and purified from insect cells (baculovirus expression system); human MMP8 (Uniprot P22894), amino acids 100–262, expressed in and purified from E. coli; human MMP9 (Uniprot P14780), amino acids 1–707, expressed in and purified from stable transfected 293 cells; human MMP12 (Uniprot P39900), amino acids 101–268, expressed in and purified from E. coli; human MMP13 (Uniprot P45452), amino acids 103–274, expressed in and purified from E. coli; human MMP14 (Uniprot P50281), amino acids 112–284, expressed in and purified from E. coli; human ADAM17 (Uniprot P78536), amino acids 1–670, expressed in and purified from insect cells (baculovirus expression system); substrate: Ac-C(PT14)-[…]-NH2 purchased from Biosyntan (product number 8069); enzyme concentrations: 3 nM (MMP1), 1 nM (MMP2), 3 nM (MMP8), 0.1 nM (MMP9), 0.5 nM (MMP12), 0.13 nM (MMP13), 0.005 nM (MMP14), 30 nM (ADAM17); substrate concentration: 0.8 μM; assay buffer: 100 mM Tris, pH 7.4, 100 mM NaCl, 10 mM CaCl2, 10 μM ZnCl2, 0.075% (v/v) Brij35.

human MMP9 = target: T3, human MMP9 (Homo sapiens, UniProt P14780); test: Selectivity assay MMP9
T3 construct: human MMP9 (Uniprot P14780), amino acids 1–707; made in house; host or cells: stably transfected 293 cells
T3 sequence (P14780 20-707): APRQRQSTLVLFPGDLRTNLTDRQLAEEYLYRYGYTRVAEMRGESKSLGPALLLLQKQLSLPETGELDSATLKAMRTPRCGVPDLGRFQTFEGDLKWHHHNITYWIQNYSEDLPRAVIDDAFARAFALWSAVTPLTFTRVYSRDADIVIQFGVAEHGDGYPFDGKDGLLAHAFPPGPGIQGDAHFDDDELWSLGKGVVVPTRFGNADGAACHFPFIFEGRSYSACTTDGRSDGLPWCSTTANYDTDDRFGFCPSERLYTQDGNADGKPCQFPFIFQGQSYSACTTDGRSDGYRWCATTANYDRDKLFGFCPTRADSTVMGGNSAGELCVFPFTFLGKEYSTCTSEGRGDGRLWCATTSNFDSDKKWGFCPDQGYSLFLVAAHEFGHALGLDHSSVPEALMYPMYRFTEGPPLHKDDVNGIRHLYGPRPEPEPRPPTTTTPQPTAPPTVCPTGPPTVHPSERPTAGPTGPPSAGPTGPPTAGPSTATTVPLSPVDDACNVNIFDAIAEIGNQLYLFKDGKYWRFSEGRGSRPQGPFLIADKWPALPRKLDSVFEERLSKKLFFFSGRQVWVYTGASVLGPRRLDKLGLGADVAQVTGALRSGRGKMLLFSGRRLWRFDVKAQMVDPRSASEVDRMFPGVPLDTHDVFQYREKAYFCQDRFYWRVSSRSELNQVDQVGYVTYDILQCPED
Protocol: as §1, §2

human MMP12 = target: T4, human MMP12 (Homo sapiens, UniProt P39900); test: Selectivity assay MMP12
T4 construct: human MMP12 (Uniprot P39900), amino acids 101–268; made in house; host or cells: E. coli
T4 sequence (P39900 101-268): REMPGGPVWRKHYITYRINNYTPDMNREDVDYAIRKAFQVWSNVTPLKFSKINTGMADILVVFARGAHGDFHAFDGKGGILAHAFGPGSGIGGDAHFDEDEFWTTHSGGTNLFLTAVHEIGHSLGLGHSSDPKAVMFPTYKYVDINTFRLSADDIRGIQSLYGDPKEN
Protocol: as §1, §2

human ADAM17 = target: T5, human ADAM17 (Homo sapiens, UniProt P78536); test: Selectivity assay ADAM17
T5 construct: human ADAM17 (Uniprot P78536), amino acids 1–670; made in house; host or cells: insect cells (baculovirus)
T5 sequence (P78536 18-670): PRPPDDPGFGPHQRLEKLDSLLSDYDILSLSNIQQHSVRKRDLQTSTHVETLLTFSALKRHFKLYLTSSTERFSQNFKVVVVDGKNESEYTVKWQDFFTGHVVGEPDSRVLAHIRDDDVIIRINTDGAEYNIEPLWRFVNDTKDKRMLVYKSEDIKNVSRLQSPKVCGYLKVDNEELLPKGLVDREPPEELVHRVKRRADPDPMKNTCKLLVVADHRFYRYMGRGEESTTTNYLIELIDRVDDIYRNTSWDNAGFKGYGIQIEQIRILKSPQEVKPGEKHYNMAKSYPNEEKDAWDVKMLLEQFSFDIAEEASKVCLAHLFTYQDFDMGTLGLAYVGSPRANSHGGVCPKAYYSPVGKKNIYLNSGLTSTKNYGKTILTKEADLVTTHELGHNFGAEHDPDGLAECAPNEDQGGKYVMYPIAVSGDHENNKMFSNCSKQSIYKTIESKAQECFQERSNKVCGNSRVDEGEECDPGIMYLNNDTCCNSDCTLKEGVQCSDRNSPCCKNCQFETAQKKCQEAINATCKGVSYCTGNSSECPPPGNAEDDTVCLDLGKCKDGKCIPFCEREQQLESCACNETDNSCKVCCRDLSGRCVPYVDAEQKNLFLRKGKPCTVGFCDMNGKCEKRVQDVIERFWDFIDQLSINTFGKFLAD
Protocol: as §1, §2

Row | IC50 (Human AMSHLP) | IC50 (human MMP8) | IC50 (human MMP9) | IC50 (human MMP12) | IC50 (human ADAM17) | Structure (SMILES)
1 | > 100 µM | 59 ± 8 µM | 3.8 ± 0.4 µM | > 100 µM | > 100 µM | COCc1ccccc1NCc1ccc([C@H]2[C@@H](O)CCCc3cncn32)c(-c2ccccc2Cl)c1 [CSN5i-2, (5S,6S)-5-(2′-chloro-5-(((2-(methoxymethyl)phenyl)amino)methyl)-[1,1′-biphenyl]-2-yl)-6,7,8,9-tetrahydro-5H-imidazo[1,5-a]azepin-6-ol]
2 | > 100 µM | 48 ± 8 µM | 3.2 ± 0.2 µM | > 100 µM | > 100 µM | COCc1ccccc1NCc1ccc([C@@H]2[C@H](O)CCCc3cncn32)c(-c2ccccc2Cl)c1 [CSN5i-2e, (5R,6R)-5-(2′-chloro-5-(((2-(methoxymethyl)phenyl)amino)methyl)-[1,1′-biphenyl]-2-yl)-6,7,8,9-tetrahydro-5H-imidazo[1,5-a]azepin-6-ol]

Row | Structure (SMILES) | IC50 (Human AMSHLP) | IC50 (human MMP8) | IC50 (human MMP9) | IC50 (human MMP12) | IC50 (human ADAM17)
3 | CC(C)n1nc(C(F)F)cc1C(=O)Nc1ccc([C@H]2[C@@H](O)CCCc3cncn32)c(-c2ccccc2)c1 [CSN5i-3, 3-(Difluoromethyl)-N-(6-((5S,6S)-6-hydroxy-6,7,8,9-tetrahydro-5H-imidazo[1,5-a]azepin-5-yl)-[1,1′-biphenyl]-3-yl)-1-isopropyl-1H-pyrazole-5-carboxamide] | > 100 µM | 14 ± 0.1 µM | 7.4 ± 2 µM | > 100 µM | > 100 µM
